Read-outs that look alike come from different tables or passages of the source. Values belong to the compound of their own block, whether it stands above or below them.
Columns and labels:
Assay in all cases: Ambit kinase profiling, competition binding
JNK1 = target: T1, JNK1 (Homo sapiens, UniProt P45983); details: for % Competition: 10 µM
T1 construct: purchased Ambit Biosciences (KINOMEscan)
Experimental: (§1) Also included in the kinase profile are four isoforms of PKC (δ, ε, η, θ) and eight isoforms of CAMKs (CAMKIα, δ, γ; CAMKIIα, β, δ, γ; CAMK4).
(§2) The global kinase profiling experiment was performed by Ambit Biosciences.

YANK3 = target: T2, YANK3 (Homo sapiens, UniProt Q86UX6)
T2 construct: purchased Ambit Biosciences (KINOMEscan)
T2 sequence (Q86UX6 whole entry): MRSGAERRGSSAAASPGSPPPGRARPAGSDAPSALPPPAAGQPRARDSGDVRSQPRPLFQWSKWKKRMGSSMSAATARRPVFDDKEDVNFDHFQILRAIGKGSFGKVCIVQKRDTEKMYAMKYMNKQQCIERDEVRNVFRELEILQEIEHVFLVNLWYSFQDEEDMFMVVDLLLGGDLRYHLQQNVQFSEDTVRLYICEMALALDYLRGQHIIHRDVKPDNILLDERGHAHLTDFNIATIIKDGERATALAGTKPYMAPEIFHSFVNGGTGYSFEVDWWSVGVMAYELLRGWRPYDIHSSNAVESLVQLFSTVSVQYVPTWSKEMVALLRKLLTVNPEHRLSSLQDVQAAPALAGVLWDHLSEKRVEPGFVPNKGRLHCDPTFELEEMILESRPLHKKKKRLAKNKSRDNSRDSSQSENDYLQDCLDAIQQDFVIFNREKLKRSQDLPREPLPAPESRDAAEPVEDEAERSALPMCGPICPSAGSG
Experimental: as §1, §2

EPHA8 = target: T3, EPHA8 (Homo sapiens, UniProt P29322)
T3 construct: purchased Ambit Biosciences (KINOMEscan)
T3 sequence (P29322 28-1005): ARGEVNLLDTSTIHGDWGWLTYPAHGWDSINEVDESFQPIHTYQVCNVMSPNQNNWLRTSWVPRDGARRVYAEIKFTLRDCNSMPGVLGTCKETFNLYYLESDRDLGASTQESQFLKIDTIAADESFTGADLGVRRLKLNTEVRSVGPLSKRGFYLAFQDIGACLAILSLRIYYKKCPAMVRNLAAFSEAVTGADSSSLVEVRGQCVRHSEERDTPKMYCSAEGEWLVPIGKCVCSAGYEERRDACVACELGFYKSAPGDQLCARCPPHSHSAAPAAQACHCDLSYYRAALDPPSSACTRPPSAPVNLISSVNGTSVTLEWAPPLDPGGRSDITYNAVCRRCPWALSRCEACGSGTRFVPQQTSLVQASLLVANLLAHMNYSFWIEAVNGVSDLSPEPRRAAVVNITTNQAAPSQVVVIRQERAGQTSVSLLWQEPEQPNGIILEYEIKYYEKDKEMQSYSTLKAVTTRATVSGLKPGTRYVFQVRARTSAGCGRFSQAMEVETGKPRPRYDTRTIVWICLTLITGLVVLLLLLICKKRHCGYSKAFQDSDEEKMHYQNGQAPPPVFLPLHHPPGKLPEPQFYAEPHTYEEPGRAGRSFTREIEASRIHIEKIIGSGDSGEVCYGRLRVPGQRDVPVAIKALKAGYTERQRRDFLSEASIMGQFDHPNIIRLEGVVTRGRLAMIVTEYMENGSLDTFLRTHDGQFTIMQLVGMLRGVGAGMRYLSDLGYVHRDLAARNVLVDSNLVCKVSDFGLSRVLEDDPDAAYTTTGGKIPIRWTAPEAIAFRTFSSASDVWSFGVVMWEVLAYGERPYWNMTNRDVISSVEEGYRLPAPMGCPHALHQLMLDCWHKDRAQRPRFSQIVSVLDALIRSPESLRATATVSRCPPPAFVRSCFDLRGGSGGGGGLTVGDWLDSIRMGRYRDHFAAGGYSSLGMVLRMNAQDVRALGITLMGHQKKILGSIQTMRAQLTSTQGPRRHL
Experimental: as §1, §2

DDR2 = target: T4, DDR2 (Homo sapiens, UniProt Q16832)
T4 construct: purchased Ambit Biosciences (KINOMEscan)
T4 sequence (Q16832 22-855): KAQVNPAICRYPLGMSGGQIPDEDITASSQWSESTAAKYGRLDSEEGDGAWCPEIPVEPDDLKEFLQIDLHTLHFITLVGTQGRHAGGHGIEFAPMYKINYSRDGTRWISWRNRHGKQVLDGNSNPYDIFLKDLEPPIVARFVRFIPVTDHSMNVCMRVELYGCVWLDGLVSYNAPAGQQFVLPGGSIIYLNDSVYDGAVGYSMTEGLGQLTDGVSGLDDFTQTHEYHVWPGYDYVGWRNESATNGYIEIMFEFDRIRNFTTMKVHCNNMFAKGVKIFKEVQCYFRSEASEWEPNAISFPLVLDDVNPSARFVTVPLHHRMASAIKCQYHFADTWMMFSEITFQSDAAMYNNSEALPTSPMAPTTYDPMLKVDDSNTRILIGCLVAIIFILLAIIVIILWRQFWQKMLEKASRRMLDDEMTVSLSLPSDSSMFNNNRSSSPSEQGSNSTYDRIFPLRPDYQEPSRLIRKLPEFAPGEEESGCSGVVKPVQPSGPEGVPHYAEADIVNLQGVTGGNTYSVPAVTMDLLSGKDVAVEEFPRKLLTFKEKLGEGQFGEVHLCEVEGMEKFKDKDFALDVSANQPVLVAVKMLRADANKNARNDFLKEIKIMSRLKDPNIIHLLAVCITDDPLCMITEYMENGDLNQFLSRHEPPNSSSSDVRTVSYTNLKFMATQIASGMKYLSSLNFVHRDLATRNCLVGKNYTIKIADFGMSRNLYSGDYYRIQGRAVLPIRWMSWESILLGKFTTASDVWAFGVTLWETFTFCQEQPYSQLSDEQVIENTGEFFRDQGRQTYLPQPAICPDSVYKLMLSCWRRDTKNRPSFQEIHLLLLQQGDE
Experimental: as §1, §2

CSK = target: T5, CSK (Homo sapiens, UniProt P41240); details: for % Competition: 10 µM
T5 construct: purchased Ambit Biosciences (KINOMEscan)
Experimental: as §1, §2

ERK8 = target: T6, ERK8 (Homo sapiens, UniProt Q8TD08)
T6 construct: purchased Ambit Biosciences (KINOMEscan)
T6 sequence (Q8TD08 1-544): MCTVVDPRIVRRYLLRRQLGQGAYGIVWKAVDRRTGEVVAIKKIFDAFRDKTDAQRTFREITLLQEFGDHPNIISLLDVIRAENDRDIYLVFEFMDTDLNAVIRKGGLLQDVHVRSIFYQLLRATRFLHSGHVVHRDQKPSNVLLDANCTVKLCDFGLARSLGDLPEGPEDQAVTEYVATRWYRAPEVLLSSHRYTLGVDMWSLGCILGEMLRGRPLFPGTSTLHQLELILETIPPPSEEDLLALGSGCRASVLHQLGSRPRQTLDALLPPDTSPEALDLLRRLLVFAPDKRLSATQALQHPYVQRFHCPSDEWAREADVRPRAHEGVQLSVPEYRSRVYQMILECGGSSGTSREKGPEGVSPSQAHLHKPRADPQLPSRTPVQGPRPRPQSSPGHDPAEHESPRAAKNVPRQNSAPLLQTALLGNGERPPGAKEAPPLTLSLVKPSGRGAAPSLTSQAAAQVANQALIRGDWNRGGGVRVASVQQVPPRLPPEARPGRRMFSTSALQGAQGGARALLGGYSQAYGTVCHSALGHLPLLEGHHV
Experimental: as §1, §2

EGFR = target: T7, EGFR (Homo sapiens, UniProt P00533); details: for % Competition: 10 µM
T7 construct: purchased Ambit Biosciences (KINOMEscan)
T7 sequence (P00533 25-1210): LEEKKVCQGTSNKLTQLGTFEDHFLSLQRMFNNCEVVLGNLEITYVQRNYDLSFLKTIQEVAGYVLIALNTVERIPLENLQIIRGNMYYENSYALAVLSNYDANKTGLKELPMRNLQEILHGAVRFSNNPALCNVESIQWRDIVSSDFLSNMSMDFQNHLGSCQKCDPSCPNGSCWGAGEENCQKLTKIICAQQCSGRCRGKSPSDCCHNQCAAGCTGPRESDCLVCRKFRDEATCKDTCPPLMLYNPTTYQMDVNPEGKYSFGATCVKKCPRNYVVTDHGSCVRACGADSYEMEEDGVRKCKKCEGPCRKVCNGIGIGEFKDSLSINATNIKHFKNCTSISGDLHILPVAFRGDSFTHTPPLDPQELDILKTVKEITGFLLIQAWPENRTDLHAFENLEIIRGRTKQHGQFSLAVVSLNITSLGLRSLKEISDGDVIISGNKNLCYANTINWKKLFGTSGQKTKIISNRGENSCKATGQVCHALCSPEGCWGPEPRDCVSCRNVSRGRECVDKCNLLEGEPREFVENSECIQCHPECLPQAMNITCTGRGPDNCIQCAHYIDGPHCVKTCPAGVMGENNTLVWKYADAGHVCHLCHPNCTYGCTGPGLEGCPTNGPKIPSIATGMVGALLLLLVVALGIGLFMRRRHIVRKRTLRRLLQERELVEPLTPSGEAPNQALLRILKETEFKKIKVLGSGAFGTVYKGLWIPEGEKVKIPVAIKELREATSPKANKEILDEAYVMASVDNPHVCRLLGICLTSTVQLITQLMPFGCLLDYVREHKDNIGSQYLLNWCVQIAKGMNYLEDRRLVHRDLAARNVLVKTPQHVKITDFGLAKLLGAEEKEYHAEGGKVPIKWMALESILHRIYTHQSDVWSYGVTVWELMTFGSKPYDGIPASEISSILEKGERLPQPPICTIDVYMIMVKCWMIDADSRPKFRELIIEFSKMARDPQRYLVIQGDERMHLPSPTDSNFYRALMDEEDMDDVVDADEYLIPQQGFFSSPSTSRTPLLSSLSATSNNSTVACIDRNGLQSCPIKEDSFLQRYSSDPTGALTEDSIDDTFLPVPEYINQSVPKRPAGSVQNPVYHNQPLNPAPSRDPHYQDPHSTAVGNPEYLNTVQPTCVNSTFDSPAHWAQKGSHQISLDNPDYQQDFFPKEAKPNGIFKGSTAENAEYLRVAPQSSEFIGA
Experimental: as §1, §2

[1] = target: T8, TYK2 (JH2 domain-pseudokinase) (Homo sapiens, UniProt P29597); details: for % Competition: TYK2 (JH2 domain-pseudokinase), 10 µM
T8 construct: TYK2 (JH2 domain-pseudokinase); purchased Ambit Biosciences (KINOMEscan)
T8 sequence (P29597 556-888 limits assumed): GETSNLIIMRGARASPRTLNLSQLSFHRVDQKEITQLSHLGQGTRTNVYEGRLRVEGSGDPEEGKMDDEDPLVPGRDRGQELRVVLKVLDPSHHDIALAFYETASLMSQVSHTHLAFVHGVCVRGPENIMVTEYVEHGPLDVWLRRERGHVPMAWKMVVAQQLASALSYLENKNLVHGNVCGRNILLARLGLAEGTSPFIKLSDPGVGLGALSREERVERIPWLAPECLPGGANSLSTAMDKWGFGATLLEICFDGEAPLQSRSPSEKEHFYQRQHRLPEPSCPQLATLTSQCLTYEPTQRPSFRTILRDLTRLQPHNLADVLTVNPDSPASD
Experimental: as §1, §2

BRAF(V600E) = target: T9, BRAF(V600E) (Homo sapiens, UniProt P15056, V600E)
T9 construct: purchased Ambit Biosciences (KINOMEscan)
T9 sequence (P15056 whole entry V600E): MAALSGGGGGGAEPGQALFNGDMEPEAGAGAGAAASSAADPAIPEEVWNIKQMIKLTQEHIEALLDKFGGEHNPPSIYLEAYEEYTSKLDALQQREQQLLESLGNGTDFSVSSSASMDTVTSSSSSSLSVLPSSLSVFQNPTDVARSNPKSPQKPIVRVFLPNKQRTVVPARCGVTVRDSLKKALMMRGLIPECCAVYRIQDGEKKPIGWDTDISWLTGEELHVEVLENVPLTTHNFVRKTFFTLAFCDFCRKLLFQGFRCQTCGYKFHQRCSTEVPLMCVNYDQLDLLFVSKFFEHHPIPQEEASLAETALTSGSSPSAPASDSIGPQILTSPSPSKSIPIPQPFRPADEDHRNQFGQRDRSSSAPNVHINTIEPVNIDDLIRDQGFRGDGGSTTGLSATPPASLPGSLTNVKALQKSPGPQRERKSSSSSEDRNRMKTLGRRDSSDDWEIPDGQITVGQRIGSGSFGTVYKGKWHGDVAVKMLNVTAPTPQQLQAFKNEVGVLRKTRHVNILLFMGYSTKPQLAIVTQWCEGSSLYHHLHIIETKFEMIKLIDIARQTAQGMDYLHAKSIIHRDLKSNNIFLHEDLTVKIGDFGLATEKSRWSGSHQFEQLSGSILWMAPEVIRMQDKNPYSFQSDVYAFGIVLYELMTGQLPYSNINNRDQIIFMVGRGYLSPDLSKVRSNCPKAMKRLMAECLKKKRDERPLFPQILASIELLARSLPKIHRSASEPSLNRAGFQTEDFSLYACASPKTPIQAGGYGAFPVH
Experimental: as §1, §2

T1 sequence (P45983 whole entry): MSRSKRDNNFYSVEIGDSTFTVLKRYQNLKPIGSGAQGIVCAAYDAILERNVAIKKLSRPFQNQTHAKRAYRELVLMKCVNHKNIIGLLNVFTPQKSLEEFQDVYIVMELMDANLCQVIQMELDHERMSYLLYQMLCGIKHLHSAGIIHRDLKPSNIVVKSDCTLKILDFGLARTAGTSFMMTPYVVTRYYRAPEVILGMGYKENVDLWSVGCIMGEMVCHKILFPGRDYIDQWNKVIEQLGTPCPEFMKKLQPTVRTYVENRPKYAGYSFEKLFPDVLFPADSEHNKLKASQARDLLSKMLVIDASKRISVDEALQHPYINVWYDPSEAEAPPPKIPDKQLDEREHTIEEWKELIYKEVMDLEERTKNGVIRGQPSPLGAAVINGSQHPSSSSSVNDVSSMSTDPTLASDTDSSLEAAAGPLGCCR

- Percent Competition (JNK1; compound concentration 10 uM): 100%
- inhibition at 10 µM (YANK3; YANK3, compound concentration 10 uM, read-out: Percent Competition): 67%
- inhibition at 10 µM (EPHA8; EPHA8, compound concentration 10 uM, read-out: Percent Competition): 71%
- inhibition at 10 µM (DDR2; DDR2, compound concentration 10 uM, read-out: Percent Competition): 100%
- Percent Competition (CSK; compound concentration 10 uM): 71%
- Percent Competition (EGFR; compound concentration 10 uM): 95%
- Percent Competition ([1]; TYK2(JH2domain-pseudokinase), compound concentration 10 uM): 78%
- inhibition at 10 µM (BRAF(V600E); BRAF(V600E), compound concentration 10 uM, read-out: Percent Competition): 97%
SMILES: Fc1ccc(-c2c(-c3ccncc3)[nH]c3nccnc23)cc1 [RO1155697-000-005]
- inhibition at 10 µM (ERK8; ERK8, compound concentration 10 uM, read-out: Percent Competition): 98%

- % Competition (JNK1): 100%
- inhibition at 10 µM (YANK3; YANK3, 10 µM, read-out: % Competition): 67%
- inhibition at 10 µM (EPHA8; EPHA8, 10 µM, read-out: % Competition): 71%
- inhibition at 10 µM (DDR2; DDR2, 10 µM, read-out: % Competition): 100%
- % Competition (CSK): 71%
- % Competition (EGFR): 95%
- % Competition [1]: 78%
- inhibition at 10 µM (BRAF(V600E); BRAF(V600E), 10 µM, read-out: % Competition): 97%
SMILES: Fc1ccc(-c2c(-c3ccncc3)[nH]c3nccnc23)cc1 [Compound 122]
- inhibition at 10 µM (ERK8; ERK8, 10 µM, read-out: % Competition): 98%

SMILES: CC(O)CNc1cc(-c2[nH]c3cccnc3c2-c2ccc(F)cc2)ccn1 (stereo not drawn) [Compound 140]
- % Competition (JNK1): 100%
- inhibition at 10 µM (YANK3; read-out: % Competition): < 50%
- inhibition at 10 µM (EPHA8; read-out: % Competition): < 50%
- inhibition at 10 µM (DDR2; read-out: % Competition): 67%
- % Competition (CSK): <50%
- inhibition at 10 µM (ERK8; read-out: % Competition): < 50%
- % Competition (EGFR): 76%
- % Competition [1]: 92%
- inhibition at 10 µM (BRAF(V600E); read-out: % Competition): 78%

Reference: publication PMC3445516 (PLoS ONE, 2012)
